Assay results published in ChEMBL document CHEMBL5465560, “Selectivity Literature for EUbOPEN Chemogenomic Library” (2024).

Tests used:
[1] = molecular target: Calcium/calmodulin-dependent protein kinase type II subunit alpha (Homo sapiens, UniProt Q9UQM7); test: Selectivity interaction (KinomeScan (DiscoverX)) EUB0000666a CAMK2A; settings: at 10 µM
[2] = molecular target: T1, Tyrosine-protein kinase Mer (Homo sapiens) (UniProt Q12866); test: Selectivity interaction (KinomeScan (DiscoverX)) EUB0000666a MERTK; settings: at 10 µM
T1 sequence (whole entry): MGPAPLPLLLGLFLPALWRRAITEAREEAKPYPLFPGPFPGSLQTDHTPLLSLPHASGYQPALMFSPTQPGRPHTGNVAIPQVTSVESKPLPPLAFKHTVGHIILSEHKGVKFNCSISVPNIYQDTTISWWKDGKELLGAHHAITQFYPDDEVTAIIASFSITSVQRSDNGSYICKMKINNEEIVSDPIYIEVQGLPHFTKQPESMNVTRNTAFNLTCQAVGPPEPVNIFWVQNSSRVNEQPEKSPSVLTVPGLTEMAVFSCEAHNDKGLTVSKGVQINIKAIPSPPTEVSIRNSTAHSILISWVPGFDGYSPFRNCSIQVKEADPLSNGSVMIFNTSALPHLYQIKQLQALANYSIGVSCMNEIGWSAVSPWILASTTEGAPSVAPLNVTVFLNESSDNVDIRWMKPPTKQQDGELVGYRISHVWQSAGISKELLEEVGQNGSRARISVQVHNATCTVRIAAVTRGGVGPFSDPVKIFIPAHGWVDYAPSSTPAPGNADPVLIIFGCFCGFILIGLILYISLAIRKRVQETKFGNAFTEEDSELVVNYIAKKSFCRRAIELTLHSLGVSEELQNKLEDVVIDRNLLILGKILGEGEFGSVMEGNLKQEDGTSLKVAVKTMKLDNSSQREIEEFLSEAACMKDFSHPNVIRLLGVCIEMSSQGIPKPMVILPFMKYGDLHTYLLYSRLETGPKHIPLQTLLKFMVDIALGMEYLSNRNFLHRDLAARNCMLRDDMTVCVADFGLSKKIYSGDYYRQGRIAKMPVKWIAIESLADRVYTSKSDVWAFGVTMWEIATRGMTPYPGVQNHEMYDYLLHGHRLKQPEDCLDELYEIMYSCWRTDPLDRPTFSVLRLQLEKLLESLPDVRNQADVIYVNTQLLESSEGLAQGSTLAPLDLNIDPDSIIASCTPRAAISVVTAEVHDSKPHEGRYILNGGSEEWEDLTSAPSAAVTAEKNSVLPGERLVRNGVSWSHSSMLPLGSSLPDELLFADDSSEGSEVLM

[3] = molecular target: T2, Inhibitor of nuclear factor kappa-B kinase subunit alpha (Homo sapiens) (UniProt O15111); test: Selectivity interaction (KinomeScan (DiscoverX)) EUB0001619a CHUK; settings: at 1 µM
T2 sequence (whole entry): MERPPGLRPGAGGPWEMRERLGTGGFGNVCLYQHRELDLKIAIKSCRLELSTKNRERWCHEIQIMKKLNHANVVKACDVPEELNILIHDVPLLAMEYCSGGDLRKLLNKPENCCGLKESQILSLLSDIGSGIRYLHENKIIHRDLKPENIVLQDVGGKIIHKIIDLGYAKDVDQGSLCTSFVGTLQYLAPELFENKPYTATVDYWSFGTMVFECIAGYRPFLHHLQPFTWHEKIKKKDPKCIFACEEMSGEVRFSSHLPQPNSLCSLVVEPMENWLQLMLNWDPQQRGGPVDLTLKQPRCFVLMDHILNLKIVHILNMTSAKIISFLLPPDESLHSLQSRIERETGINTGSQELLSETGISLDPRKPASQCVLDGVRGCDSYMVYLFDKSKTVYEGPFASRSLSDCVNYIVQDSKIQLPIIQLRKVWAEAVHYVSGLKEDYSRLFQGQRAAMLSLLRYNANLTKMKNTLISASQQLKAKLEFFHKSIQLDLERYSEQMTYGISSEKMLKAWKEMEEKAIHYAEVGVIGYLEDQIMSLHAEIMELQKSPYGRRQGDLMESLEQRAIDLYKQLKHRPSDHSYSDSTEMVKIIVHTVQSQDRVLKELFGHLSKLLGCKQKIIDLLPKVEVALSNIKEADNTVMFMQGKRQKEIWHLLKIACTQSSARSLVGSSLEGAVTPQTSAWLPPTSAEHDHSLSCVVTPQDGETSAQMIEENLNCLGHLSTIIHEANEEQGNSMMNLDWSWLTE

[4] = molecular target: Tyrosine-protein kinase Fyn (Homo sapiens) (UniProt P06241); test: Selectivity interaction (ActivX KiNativ screen (ex vivo kinase selectivity in human PBMCs)) EUB0001619a FYN; assay type: cell-based; settings: PBMC, at 1 µM
Tyrosine-protein kinase Fyn (Homo sapiens), sequence (P06241 2-537 limits assumed): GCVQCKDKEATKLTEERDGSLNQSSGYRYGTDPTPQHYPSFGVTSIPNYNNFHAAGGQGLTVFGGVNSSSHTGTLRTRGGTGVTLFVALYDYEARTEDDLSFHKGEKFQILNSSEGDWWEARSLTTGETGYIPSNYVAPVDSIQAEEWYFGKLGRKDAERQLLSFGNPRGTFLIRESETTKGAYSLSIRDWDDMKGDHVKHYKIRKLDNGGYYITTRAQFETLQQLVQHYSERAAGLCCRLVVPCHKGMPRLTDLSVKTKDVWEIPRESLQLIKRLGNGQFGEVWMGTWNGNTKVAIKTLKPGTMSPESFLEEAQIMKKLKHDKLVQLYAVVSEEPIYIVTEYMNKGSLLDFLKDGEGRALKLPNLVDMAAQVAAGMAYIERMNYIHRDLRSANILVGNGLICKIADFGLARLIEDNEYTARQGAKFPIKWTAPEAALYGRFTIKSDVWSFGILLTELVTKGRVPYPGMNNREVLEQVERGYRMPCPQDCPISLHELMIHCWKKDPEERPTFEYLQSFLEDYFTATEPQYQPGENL

[5] = molecular target: T3, Bone morphogenetic protein receptor type-2 (Homo sapiens) (UniProt Q13873); test: Selectivity interaction (KinomeScan (DiscoverX)) EUB0000655a BMPR2; settings: at 10 µM
T3 sequence (whole entry): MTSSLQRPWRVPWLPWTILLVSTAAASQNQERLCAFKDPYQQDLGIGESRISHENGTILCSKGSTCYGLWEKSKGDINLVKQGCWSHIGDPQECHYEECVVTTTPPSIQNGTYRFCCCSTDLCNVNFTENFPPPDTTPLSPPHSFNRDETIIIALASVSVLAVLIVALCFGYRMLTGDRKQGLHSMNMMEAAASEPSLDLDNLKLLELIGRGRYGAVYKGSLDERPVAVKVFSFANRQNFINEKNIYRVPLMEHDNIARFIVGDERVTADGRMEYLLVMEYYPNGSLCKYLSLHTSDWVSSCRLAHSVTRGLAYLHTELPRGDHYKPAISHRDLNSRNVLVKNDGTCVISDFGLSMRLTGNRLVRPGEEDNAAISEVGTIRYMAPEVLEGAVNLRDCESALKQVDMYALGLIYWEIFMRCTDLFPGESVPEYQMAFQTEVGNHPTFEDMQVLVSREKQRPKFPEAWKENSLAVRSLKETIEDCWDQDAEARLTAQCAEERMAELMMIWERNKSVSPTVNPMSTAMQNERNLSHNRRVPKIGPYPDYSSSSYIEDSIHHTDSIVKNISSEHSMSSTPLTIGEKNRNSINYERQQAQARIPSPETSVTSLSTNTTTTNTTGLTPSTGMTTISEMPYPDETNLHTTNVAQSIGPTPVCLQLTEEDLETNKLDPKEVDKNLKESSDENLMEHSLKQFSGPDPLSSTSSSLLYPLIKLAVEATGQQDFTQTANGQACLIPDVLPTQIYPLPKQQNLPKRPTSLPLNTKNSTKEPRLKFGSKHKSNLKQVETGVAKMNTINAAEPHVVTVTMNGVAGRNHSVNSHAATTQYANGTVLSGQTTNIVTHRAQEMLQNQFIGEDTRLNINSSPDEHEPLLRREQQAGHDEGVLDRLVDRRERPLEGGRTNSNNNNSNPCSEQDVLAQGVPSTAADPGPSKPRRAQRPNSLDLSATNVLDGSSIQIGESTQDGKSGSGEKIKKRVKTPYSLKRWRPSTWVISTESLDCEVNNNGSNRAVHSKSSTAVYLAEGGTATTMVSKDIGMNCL

[6] = molecular target: Insulin-like growth factor 1 receptor (Homo sapiens, UniProt P08069); test: Selectivity interaction (Ambit KINOMEscan and KiNATiv profiling in Jurkat cells) EUB0000090b IGF1R; assay type: cell-based; settings: at 1 µM
Insulin-like growth factor 1 receptor, sequence (P08069 31-736 limits assumed): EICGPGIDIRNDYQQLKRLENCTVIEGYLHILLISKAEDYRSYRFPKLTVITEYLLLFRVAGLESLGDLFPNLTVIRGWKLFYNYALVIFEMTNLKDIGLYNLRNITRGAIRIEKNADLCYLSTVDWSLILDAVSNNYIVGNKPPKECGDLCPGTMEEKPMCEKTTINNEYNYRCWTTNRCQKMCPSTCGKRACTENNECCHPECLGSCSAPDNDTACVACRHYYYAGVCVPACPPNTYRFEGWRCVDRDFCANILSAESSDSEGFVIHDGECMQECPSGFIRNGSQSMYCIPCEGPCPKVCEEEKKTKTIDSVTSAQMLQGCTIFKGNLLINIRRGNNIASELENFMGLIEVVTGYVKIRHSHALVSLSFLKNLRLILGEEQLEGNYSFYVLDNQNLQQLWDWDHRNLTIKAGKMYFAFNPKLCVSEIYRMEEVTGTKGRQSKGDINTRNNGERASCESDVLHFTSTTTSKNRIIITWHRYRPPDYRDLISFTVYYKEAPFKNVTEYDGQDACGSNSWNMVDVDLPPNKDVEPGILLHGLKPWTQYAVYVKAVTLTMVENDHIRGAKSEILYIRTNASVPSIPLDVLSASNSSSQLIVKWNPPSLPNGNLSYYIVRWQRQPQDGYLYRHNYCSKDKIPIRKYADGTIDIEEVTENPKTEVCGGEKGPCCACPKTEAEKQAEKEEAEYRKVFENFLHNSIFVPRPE
Insulin-like growth factor 1 receptor, sequence (P08069 741-1367 limits assumed): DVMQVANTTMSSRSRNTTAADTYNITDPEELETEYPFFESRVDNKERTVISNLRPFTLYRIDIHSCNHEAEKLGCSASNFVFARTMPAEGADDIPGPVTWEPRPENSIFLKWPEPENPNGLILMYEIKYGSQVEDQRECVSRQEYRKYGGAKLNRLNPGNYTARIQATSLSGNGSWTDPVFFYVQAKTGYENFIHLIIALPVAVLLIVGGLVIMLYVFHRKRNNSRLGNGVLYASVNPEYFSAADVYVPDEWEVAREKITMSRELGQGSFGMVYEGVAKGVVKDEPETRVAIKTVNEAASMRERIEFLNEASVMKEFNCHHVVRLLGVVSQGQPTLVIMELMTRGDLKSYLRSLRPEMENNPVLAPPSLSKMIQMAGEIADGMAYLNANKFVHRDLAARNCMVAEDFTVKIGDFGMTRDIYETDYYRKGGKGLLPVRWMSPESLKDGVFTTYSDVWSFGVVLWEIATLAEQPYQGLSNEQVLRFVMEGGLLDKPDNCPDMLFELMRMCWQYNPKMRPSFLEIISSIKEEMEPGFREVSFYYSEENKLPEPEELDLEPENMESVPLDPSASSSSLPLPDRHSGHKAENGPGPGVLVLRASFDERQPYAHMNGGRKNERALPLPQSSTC

Calcium/calmodulin-dependent protein kinase type II subunit alpha, sequence (Q9UQM7 whole entry): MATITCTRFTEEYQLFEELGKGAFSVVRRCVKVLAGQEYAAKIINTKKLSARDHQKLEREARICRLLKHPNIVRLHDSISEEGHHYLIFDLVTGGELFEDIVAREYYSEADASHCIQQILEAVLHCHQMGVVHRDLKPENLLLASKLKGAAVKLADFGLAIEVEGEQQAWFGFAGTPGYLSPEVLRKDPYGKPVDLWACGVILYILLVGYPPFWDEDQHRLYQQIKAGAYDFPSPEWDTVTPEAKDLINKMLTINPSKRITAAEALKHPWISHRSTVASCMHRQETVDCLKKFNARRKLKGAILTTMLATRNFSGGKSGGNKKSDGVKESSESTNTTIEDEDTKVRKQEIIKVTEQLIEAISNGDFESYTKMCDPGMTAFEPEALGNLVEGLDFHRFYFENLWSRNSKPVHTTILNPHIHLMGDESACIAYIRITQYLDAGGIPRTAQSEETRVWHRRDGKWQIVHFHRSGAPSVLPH

What does the source list for `O=C(NOC[C@H](O)CO)c1ccc(F)c(F)c1Nc1ccc(I)cc1F`?
% of control [1]: 100%; % of control [2]: 100%

Which % of control [3] does the source give for `N#Cc1cccc(-c2c[nH]c3ncnc(N4CCOCC4)c23)c1` here?
Its % of control is 71%.

And the % of inhibition [4]?
The % of inhibition was -9%.

For `CN(C)CCOc1ccc(-c2nc(-c3ccncc3)c(-c3ccc4c(c3)CC/C4=N\O)[nH]2)cc1`, which % of control [5] is on record?
The % of control was 47%.

For `CN(C)C/C=C/C(=O)Nc1ccc(C(=O)N2CCCC(Nc3ncc(Cl)c(-c4c[nH]c5ccccc45)n3)C2)cc1` (stereo unspecified), which % of control [6] is on record?
Its % of control is 91%.
